From patent publication US6143764A, “Quinoline and quinazoline derivatives inhibiting platelet-derived growth factor receptor autophosphorylation and pharmaceutical compositions containing the same” (priority 1995, dated 2000) come the findings set out here.

Molecules are shown by their SMILES. pIC50: −log10 of the molar value.

The assay addresses T1, PDGF receptor (Rattus norvegicus, UniProt Q05030).
T1 construct: cultured rat mesangial cells which are known to have the PDGF receptor; endogenous in cells; host or cells: primary mesangial cells cultured from glomeruli of Wistar-Kyoto rats (Charles River Japan), more than 5 passages
The assay can be described thus: PDGF receptor autophosphorylation inhibition in cultured rat mesangial cells. The class given is cell-based. The settings on record: PDGF-BB 50 ng/ml. As for the experimental part:
1. Cultivation of rat mesangial cells
The glomerulus-derived adhesive cells were subcultured several times to obtain mesangial cells. The mesangial cells subcultured more than 5 passages were used for the assay.
2.Evaluation of PDGF receptor autophosphorylation inhibition
The mesangial cells were seeded in 24-well flat-bottom microtiter plates and then cultured in the medium containing 10% FCS for 2 days. When the cells were grown to about 3×10^4 cells per well, the medium was changed to the medium containing 0.5% FCS, the cultivation was continued for another 3 days, and then cell growth was arrested. The culture medium was removed, the adhered cells were washed with 500 μl of the medium, and 250 μl of the medium containing 0.1% bovine serum albumin (hereinafter abbreviated to BSA) was then added. A test drug dissolved in 1.38 μl of dimethyl sulfoxide (hereinafter abbreviated to DMSO) was added to this culture medium, and the admixture was incubated at 37° C. for 1 hour. Recombinant human platelet-derived growth factor BB chain (hereinafter abbreviated to PDGF-BB) was dissolved in the medium containing 0.1% BSA, 25 μl per well of the solution was added at final 50 ng/ml, and the incubation was continued at 37° C. for 10 minutes. […] The cells were allowed to stand at 4° C. for 30 minutes for lysis, and the resulting solution was thoroughly admixed with an equal amount of Tris-buffered physiological saline containing 1% sodium dodecyl sulfate (hereinafter abbreviated to SDS). […] After the electrophoresis, proteins in the gel were electrically transferred to a PVDF filter, which was then subjected to Western blotting using monoclonal antibodies against phosphotyrosine. Bands of PDGF receptor (molecular weight: about 180 Kda) which were autophosphorylated due to the addition of PDGF-BB were quantitated by a densitometer. Autophosphorylation rates for individual wells with drugs were calculated by setting measurements for PDGF receptor autophosphorylation in the wells without drugs in the presence and absence of PDGF-BB as 100% and 0%, respectively.

T1 sequence (Q05030 32-1097): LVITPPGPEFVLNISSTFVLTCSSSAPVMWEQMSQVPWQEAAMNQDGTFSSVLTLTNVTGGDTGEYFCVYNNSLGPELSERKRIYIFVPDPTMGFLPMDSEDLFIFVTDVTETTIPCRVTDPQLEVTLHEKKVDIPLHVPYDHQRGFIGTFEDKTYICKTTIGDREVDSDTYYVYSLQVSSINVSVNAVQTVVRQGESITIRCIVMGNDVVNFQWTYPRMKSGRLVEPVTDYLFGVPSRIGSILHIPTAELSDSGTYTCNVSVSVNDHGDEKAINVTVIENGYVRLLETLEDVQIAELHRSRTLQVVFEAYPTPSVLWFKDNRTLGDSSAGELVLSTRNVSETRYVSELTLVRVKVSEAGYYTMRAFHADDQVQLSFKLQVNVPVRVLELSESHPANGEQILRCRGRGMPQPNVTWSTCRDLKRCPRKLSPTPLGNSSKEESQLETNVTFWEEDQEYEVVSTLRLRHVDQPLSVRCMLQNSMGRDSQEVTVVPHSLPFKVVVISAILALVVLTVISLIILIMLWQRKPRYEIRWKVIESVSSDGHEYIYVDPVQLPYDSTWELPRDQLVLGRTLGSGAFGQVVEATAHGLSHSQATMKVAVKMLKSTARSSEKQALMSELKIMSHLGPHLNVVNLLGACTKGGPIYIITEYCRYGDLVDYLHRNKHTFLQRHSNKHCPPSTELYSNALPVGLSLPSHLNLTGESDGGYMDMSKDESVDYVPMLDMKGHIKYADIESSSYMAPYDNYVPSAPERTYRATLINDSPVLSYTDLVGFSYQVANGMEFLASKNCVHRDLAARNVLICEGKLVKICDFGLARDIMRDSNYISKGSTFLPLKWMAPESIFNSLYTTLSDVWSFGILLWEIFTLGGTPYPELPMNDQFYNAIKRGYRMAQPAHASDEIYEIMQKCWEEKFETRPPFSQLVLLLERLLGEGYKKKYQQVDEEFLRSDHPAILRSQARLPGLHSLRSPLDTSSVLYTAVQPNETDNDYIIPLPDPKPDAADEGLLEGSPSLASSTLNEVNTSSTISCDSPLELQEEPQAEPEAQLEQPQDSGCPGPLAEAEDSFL

As to `COc1cc2nccc(Oc3ccc(NC(=O)Nc4ccc(C)cc4)cc3)c2cc1OC` [Compound 131], the pIC50 is 8.52.

`COc1cc2nccc(Oc3ccc(NC(=O)NCc4ccc(C(C)(C)C)cc4)cc3)c2cc1OC` [Compound 248, N-[(4-tert-Butylphenyl)methyl]-N'-{4-[(6,7-dimethoxy-4-quinolyl)oxy]phenyl}urea]: the negative-log IC50 (pIC50) was 7.20.

In turn, `COc1cc2nccc(Oc3ccc(NC(=O)Nc4cc(OC)c(OC)c(OC)c4)cc3)c2cc1OC` [Compound 271, N-(3,4,5-Trimethoxyphenyl)-N'-{4-[(6,7-dimethoxy-4-quinolyl)oxy]phenyl}urea] showed a pIC50 of 8.40.

Turning to `COc1ccc(NC(=O)Nc2ccc(Oc3ccnc4cc(OC)c(OC)cc34)cc2)cc1OC` [Compound 198, N-(3,4-Dimethoxyphenyl)-N'-{4-[(6,7-dimethoxy-4-quinolyl)oxy]phenyl}urea], the pIC50 was 7.96.

The compound `CCCCOc1ccc(C(=O)Nc2ccc(Oc3ccnc4cc(OC)c(OC)cc34)cc2)cc1` [Compound 74, N-{4-[(6,7-Dimethoxy-4-quinolinyl)oxy]phenyl}-(4-butoxyphenyl)carboxamide] showed a pIC50 of 6.47. Compared with the last compound, the pIC50 is 1.49 log units lower.

For `COc1cc2nccc(Oc3ccc(NC(=O)C4CCCC4)cc3)c2cc1OC` [Compound 79, N-{4-[(6,7-Dimethoxy-4-quinolinyl)oxy]phenyl}cyclopentanecarboxamide], the pIC50 is 6.47.

As to `COc1cc2nccc(Oc3ccc(NC(=O)Nc4ccc(OC(C)=O)cc4)cc3)c2cc1OC` [Compound 270, N-(4-Acetoxyphenyl)-N'-{4-[(6,7-dimethoxy-4-quinolyl)oxy]phenyl}urea], the pIC50 was 8.22. This pIC50 is 1.75 log units higher than that of the compound before.

As for `COc1cc(NC(=O)Nc2ccc(Oc3ccnc4cc(OC)c(OC)cc34)cc2)cc(OC)c1` [Compound 259, N-(3,5-Dimethoxyphenyl)-N'-{4-[(6,7-dimethoxy-4-quinolyl)oxy]phenyl}urea], the pIC50 is 8.30.

Compound `COc1cc2nccc(Oc3ccc(NC(=O)Nc4ccc(C(C)=O)cc4)cc3)c2cc1OC` [Compound 49, N-(4-Acetylphenyl)-N'-{4-[(6,7-dimethoxy-4-quinolinyl)oxy]phenyl}urea] showed a pIC50 of 7.74.

As to `COc1cc2nccc(Oc3ccc(NC(=O)Nc4ccccc4Cl)cc3)c2cc1OC` [Compound 266, N-(2-Chlorophenyl)-N'-{4-[(6,7-dimethoxy-4-quinolyl)oxy]phenyl}urea], the pIC50 was 9.00. Compared with the last compound, the pIC50 is 1.26 log units higher.

Take `COc1cc2nccc(Oc3ccc(NC(=O)Nc4cccc5ccccc45)cc3)c2cc1OC` [Compound 174, N-{4-[(6,7-Dimethoxy-4-quinolyl)oxy]phenyl}-N'-(1-naphthyl)urea]: the pIC50 was 8.70.

Compound `COCCCNC(=O)Nc1ccc(Oc2ccnc3cc(OC)c(OC)cc23)cc1` [Compound 245, N-(3-Methoxypropyl)-N'-{4-[(6,7-dimethoxy-4-quinolyl)oxy]phenyl}urea] gave a pIC50 of 8.22.

In the case of `COc1cccc(NC(=O)Nc2ccc(Oc3ncnc4cc(OC)c(OC)cc34)cc2)c1` [Compound 114, N-{4-[(6,7-Dimethoxy-4-quinazolinyl)oxy]phenyl}-N'-(3-methoxyphenyl)urea], the negative-log IC50 (pIC50) was 8.40.

Compound `COc1cc2nccc(Oc3ccc(NC(=O)NCCCCl)cc3)c2cc1OC` [Compound 278, N-(3-Chloropropyl)-N'-{4-[(6,7-dimethoxy-4-quinolyl)oxy]phenyl}urea] gave a negative-log IC50 (pIC50) of 8.52.

The compound `COc1cc2nccc(Oc3cccc(C(C)=O)c3)c2cc1OC` [Compound 6] had a pIC50 of 6.35.

In turn, `COc1cc2nccc(Oc3ccc(NC(=O)NCc4ccncc4)cc3)c2cc1OC` [Compound 250] gave a negative logarithm of the IC50 (pIC50) of 7.77.

With `COc1cc2nccc(Oc3ccc(NC(=O)Nc4c(C)cccc4Cl)cc3)c2cc1OC` [Compound 226, N-(2-Chloro-6-methylphenyl)-N'-{4-[(6,7-dimethoxy-4-quinolyl)oxy]phenyl}urea], the pIC50 is 7.96.

Regarding `COc1cc2nccc(Oc3ccc(NC(=O)Nc4ccc5c(c4)CCC5)cc3)c2cc1OC` [Compound 197, N-(5-Indanyl)-N'-{4-[(6,7-dimethoxy-4-quinolyl)oxy]phenyl}urea], the pIC50 was 8.00.

Take `COc1cc2nccc(Oc3ccc(NC(=O)Nc4c(Cl)cccc4Cl)cc3)c2cc1OC` [Compound 230, N-(2,6-Dichlorophenyl)-N'-{4-[(6,7-dimethoxy-4-quinolyl)oxy]phenyl}urea]: the pIC50 was 7.47.

For the compound `COc1cc2nccc(Oc3ccc(NC(=O)Nc4ccccc4O)cc3)c2cc1OC` [Compound 281, N-(2-Hydroxyphenyl)-N'-{4-[(6,7-dimethoxy-4-quinolyl)oxy]phenyl}urea], the negative logarithm of the IC50 (pIC50) was 7.92.

Take `COc1cc2nccc(Oc3ccc(C(=O)c4ccc(N5CCOCC5)cc4)cc3)c2cc1OC` [Compound 288, {4-[(6,7-Dimethoxy-4-quinolyl)oxy]phenyl}[4-morpholinophenyl]methanone]: the negative-log IC50 (pIC50) is 7.62.

`COc1cc2nccc(Oc3ccc(NC(=O)Nc4cccc(OC)c4OC)cc3)c2cc1OC` [Compound 268, N-(2,3-Dimethoxyphenyl)-N'-{4-[(6,7-dimethoxy-4-quinolyl)oxy]phenyl}urea] gave a pIC50 of 8.15.

As to `COc1cc2nccc(Oc3ccc(NC(=O)Nc4cccc(C)c4)cc3)c2cc1OC` [Compound 55, N-{4-[(6,7-Dimethoxy-4-quinolyl)oxy]phenyl}-N'-(3-methylphenyl)urea], the negative logarithm of the IC50 (pIC50) was 8.52.

`COc1cc2nccc(Oc3ccc(NC(=O)Nc4ccc(Cl)c([N+](=O)[O-])c4)cc3)c2cc1OC` [Compound 228, N-(4-Chloro-3-nitrophenyl)-N'-{4-[(6,7-dimethoxy-4-quinolyl)oxy]phenyl}urea] showed a pIC50 of 7.26. This pIC50 is 1.26 log units lower than that of the compound before.

In turn, `COc1cc2nccc(Oc3ccc(NC(=O)Nc4ccc(Cl)cc4N)cc3)c2cc1OC` [Compound 239, N-(2-Amino-4-chlorophenyl)-N'-{4-[(6,7-dimethoxy-4-quinolyl)oxy]phenyl}urea] showed a pIC50 of 8.30.

In turn, `COc1cc2nccc(Oc3ccc(C(=O)c4ccc(N5CCCCC5)cc4)cc3)c2cc1OC` [Compound 290, {4-[(6,7-Dimethoxy-4-quinolyl)oxy]phenyl}[4-piperidinophenyl]methanone] had a pIC50 of 7.26.

`COc1cc2nccc(Oc3ccc(NC(=O)Nc4ccccc4SC)cc3)c2cc1OC` [Compound 276, N-(2-Methylthiophenyl)-N'-{4-[(6,7-dimethoxy-4-quinolyl)oxy]phenyl}urea] had a pIC50 of 8.30.

For `COc1cc2nccc(Oc3ccc(NC(=O)c4ccc([N+](=O)[O-])cc4)cc3)c2cc1OC` [Compound 66, N-{4-[(6,7-Dimethoxy-4-quinolinyl)oxy]phenyl}-(4-nitrophenyl)carboxamide], the negative-log IC50 (pIC50) was 6.89. Against the preceding compound, the pIC50 is 1.41 log units lower.

`COc1cc2nccc(Oc3ccc(NC(=O)Nc4ccc(Cl)cc4[N+](=O)[O-])cc3)c2cc1OC` [Compound 238, N-(4-Chloro-2-nitrophenyl)-N'-{4-[(6,7-dimethoxy-4-quinolyl)oxy]phenyl}urea]: the pIC50 was 7.80.

For `COc1cc2nccc(Oc3ccc(NC(=O)NCc4cccnc4)cc3)c2cc1OC` [Compound 249, N-(4-[(6,7-Dimethoxy-4-quinolyl)oxy]phenyl)-N'-(3-pyridylmethyl) urea], the negative-log IC50 (pIC50) is 7.39.

The compound `COCCNC(=O)Nc1ccc(Oc2ccnc3cc(OC)c(OC)cc23)cc1` [Compound 246, N-(2-Methoxyethyl)-N'-{4-[(6,7-dimethoxy-4-quinolyl)oxy]phenyl}urea] had a negative-log IC50 (pIC50) of 7.89.

In turn, `COc1cc2nccc(Oc3ccc(NC(=O)Nc4ccc([N+](=O)[O-])cc4)cc3)c2cc1OC` [Compound 46, N-{4-[(6,7-Dimethoxy-4-quinolinyl)oxy]phenyl}-N'-(4-nitrophenyl)urea] gave a pIC50 of 7.68.

As to `COc1cc2nccc(Oc3ccc4[nH]ccc4c3)c2cc1OC` [Compound 16, 6,7-Dimethoxy-4-(5-indolyloxy)quinoline], the pIC50 is 7.30.

`COc1cc2nccc(Oc3ccc(NC(=O)NCc4ccccn4)cc3)c2cc1OC` [Compound 247, N-(4-[(6,7-Dimethoxy-4-quinolyl)oxy]phenyl)-N'-(2-pyridylmethyl)urea] showed a negative logarithm of the IC50 (pIC50) of 8.05.

`COc1cc2nccc(Oc3ccc(NC(=O)NC(=O)c4ccccn4)cc3)c2cc1OC` [Compound 240, N-{4-[(6,7-dimethoxy-4-quinolyl)oxy]phenyl}-N'-(2-pyridinecarbonyl)urea] showed a negative-log IC50 (pIC50) of 6.82.

Regarding `COc1cc2nccc(Oc3ccc(NC(=O)Nc4c(F)cccc4F)cc3)c2cc1OC` [Compound 263, N-(2,6-Difluorophenyl)-N'-{4-[(6,7-dimethoxy-4-quinolyl)oxy]phenyl}urea], the negative-log IC50 (pIC50) was 8.40.

In turn, `CCCCc1ccc(C(=O)Nc2ccc(Oc3ccnc4cc(OC)c(OC)cc34)cc2)cc1` [Compound 69, N-{4-[(6,7-Dimethoxy-4-quinolinyl)oxy]phenyl}-(4-butylphenyl)carboxamide] had a pIC50 of 7.30.

Compound `COc1cc2nccc(Oc3ccc(NC(=O)Nc4ccccc4C(C)C)cc3)c2cc1OC` [Compound 166, N-(2-Isopropylphenyl)-N'-{4-[(6,7-dimethoxy-4-quinolyl)oxy]phenyl}urea] had a pIC50 of 7.96.
